For assay [1], the system named is mice. In words: Marble burying test. It is filed as in vivo. The note with it: 30ip, reduction in number of marbles buried vs control group, 30 min after treatment. From the text:
The Marble burying test is a screening tool for putative anxiolytics. In this test, control mice naturally bury glass marbles in the cage bedding and the administration of anxiolytic compounds, including Diazepam, reduces the number of buried marbles. Positive compounds in the marble burying test including selective serotonin reuptake inhibitor may be especially beneficial to obsessive-compulsive disorder.
A group of mice was intraperitoneally treated with test compound dissolved in 30% PEG400 with an injection volume of 10 ml/kg. The group treated with only 30% PEG400 served as a control group. Thirty minutes after the treatment, the animals were individually placed in a polycarbonate cage which was same as used for animal housing with an open top located within a quiet room. Each cage consisted of ⅛ inch corn bedding 5 cm deep. Twenty four clean glass marbles (15 mm diameter) were evenly spaced in four rows of six on top of the bedding. Each mouse was left in the cage for 30 minutes and the number of marbles buried (buried more than ½ or ⅔) was counted. The potent ability of the compounds was determined as percent value of reduction in the number of marbles buried comparing to the control group.

For assay [2], the target named is T1, human recombinant norepinephrine transporter (Homo sapiens, UniProt P23975).
T1 construct: expressed in transfected cells; host or cells: MDCK
T1 sequence (P23975 whole entry): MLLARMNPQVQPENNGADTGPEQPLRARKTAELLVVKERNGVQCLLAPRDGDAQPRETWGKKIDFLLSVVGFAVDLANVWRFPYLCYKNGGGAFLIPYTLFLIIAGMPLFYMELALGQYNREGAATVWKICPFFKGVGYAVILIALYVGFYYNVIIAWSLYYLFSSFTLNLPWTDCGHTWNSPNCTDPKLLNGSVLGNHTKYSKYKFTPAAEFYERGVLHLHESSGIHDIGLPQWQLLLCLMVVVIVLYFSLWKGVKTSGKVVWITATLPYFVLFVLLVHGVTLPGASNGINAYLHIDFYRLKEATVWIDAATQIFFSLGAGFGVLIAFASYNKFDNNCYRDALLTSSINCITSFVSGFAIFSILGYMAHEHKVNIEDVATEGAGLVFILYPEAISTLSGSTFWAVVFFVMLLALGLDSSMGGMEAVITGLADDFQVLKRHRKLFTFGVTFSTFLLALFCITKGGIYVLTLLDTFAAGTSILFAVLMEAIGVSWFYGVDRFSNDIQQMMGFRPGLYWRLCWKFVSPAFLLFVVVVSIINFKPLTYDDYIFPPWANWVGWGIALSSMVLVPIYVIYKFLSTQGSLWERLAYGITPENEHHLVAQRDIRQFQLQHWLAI
In words: Norepinephrine transporter reuptake inhibition assay ([3H]Norepinephrine uptake). It counts as cell-based. The note with it: 100 nM; MDCK cells with human recombinant norepinephrine transporter; read-out: Inhibition % at 100 nM NE reuptake. On the procedure: Norepinephrine Transporter Reuptake Inhibition Assay
MDCK cells with stably expressed human recombinant norepinephrine transporter were plated one day. Test compounds were pre-incubated with cells (2×10^5/ml) in modified Tris-HEPES buffer pH 7.1 for 20 minutes at 25° C. and then they were incubated for additional 10 minutes after 25 nM of [^3H]Norepinephrine was added. A lysate was obtained from solubilized cells and the filtered lysate was counted to determine [^3H]Norepinephrine uptake. Reduction of [^3H]Norepinephrine uptake by 50 percent or more (≧50%) relative to 10 μM desipramine indicates significant inhibitory activity.

For assay [3], the system named is mice. Kind of assay: Acetic acid induced writhing test (AA writhing test). It is filed as in vivo. The note with it: Mus musculus, 0.5 h, 30sc, reduction in number of writhing vs control group, 0.8% acetic acid ip 30 min after compound. An excerpt: Acetic Acid Induced Writhing Test (AA Writhing Test)
The Acetic acid-induced writhing test is a well-established nociceptive test using a chemical stimulus. Although several animal models of nociceptive tests have been developed to examine and compare the anti-nociceptive effects of different drugs, the anti-nociceptive effects of antidepressants appear to be test-dependent. Indeed, the acetic acid-induced writhing test is more sensitive to antidepressants than other tests using thermal, mechanical or electrical stimuli.
The animals were subcutaneously treated with the test compound with an injection volume of 10 ml/kg. The group treated with 30% PEG400 or saline served as a control group. Thirty minutes later, the mice were intraperitoneally treated with 0.8% (v/v) acetic acid. Each mouse was then placed in a cage for individual observation. The writhing numbers for 10 minutes were counted. The writhe is operationally defined as a contraction of the abdomen followed by stretching of the hind limbs. The potent ability of the compounds was determined as percent value of reduction in the number of writhing comparing to the control group.

Assay [4] addresses T2, human serotonin transporter (Homo sapiens, UniProt P31645).
T2 construct: expressed in transfected cells; host or cells: HEK-293
Kind of assay: Serotonin transporter reuptake inhibition assay ([3H]Serotonin uptake). It counts as cell-based. The note with it: HEK293; 100 nM; recombinant HEK-293 cells with human serotonin transporter; read-out: Inhibition % at 100 nM 5-HT reuptake. On the procedure: Serotonin Transporter Reuptake Inhibition Assay
The recombinant HEK-293 cells with human serotonin transporter were plated. Test compounds described in table 1 were pre-incubated with cells (2×10^5/ml) in modified Tris-HEPES buffer pH 7.1 for 20 minutes at 25° C. and then they were incubated for additional 10 minutes after 65 nM of [^3H]Serotonin was added. Bound cells were filtered and counted to determine [^3H]Serotonin uptake. Reduction of [^3H]Serotonin uptake by 50 percent or more (≧50%) relative to 10 μM fluoxetine indicates significant inhibitory activity.

Assay [5] has as its target T3, human recombinant dopamine transporter (Homo sapiens, UniProt Q01959).
T3 construct: expressed in transfected cells; host or cells: CHO-K1
Kind of assay: Dopamine transporter reuptake inhibition assay ([3H]Dopamine uptake). It counts as cell-based. The note with it: 100 nM; CHO-K1 cells with human recombinant dopamine transporter; read-out: Inhibition % at 100 nM DA reuptake. On the procedure:
Dopamine Transporter Reuptake Inhibition Assay
CHO-K1 cells with human recombinant dopamine transporter were plated. Test compounds were pre-incubated with cells (4×10^5/ml) in modified Tris-HEPES buffer pH 7.1 for 20 minutes at 25° C. and then they were incubated for additional 10 minutes after 50 nM of [^3H]Dopamine was added. A lysate is obtained from solubilized cells and counted to determine [^3H]Dopamine uptake. Reduction of [^3H]Dopamine uptake by 50 percent or more (≧50%) relative to 10 μM nomifensine indicates significant inhibitory activity.

The test system of assay [6] is mice. In words: Forced swimming test in mice (FST). It counts as in vivo. The note with it: Mus musculus, 0.5 h, 30ip, reduction in duration of immobility vs control group, 30 min after administration. On the procedure: Forced swimming Test in Mice (FST)
The Forced swimming test is an animal model based on the rodent's behavioral repertoire for screening drugs with potential antidepressant activity. As in several other models used for this goal, an uncontrollable stress stimulus produces behavioral changes that are sensitive to antidepressant treatment.
The mice were intraperitoneally treated with the test compound with an injection volume of […]. The group treated with 30% PEG400 served as a control group. Thirty minutes following administration, mice were individually forced to swim in a transparent glass vessel (14 cm high, 11.5 cm in diameter) filled with 10 cm of water at 25° C. The total duration of immobility (second) was measured during the last 4 minutes of a single 6-min test session. Mice were considered immobile when they made no further attempts to escape other than the movements necessary to keep their heads above the water. The potent ability of the compounds was determined as percent value of reduction in the duration of immobility comparing to the control group.

These results are taken from patent publication US8101642B2, “3-substituted propanamine compounds” (SK Biopharmaceuticals Co., Ltd., priority 2008, dated 2012).

Each structure is given as a SMILES string.

T2 sequence (P31645 whole entry): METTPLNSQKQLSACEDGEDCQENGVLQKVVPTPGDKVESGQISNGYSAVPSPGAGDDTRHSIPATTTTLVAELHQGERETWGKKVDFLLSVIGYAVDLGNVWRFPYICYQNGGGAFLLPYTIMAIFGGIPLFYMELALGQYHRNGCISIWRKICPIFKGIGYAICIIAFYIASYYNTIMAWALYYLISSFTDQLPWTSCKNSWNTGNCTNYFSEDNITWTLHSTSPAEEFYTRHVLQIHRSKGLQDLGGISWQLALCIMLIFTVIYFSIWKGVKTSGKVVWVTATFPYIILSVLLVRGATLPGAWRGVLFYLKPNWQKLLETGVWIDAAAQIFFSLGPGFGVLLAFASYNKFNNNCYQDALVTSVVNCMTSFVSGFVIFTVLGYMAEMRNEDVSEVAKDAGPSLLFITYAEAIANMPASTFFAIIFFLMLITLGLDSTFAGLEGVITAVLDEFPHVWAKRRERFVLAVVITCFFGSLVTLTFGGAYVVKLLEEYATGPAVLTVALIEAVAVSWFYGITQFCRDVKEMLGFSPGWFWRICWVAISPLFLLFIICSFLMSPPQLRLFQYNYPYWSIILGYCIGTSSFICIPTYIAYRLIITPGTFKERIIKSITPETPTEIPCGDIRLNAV
T3 sequence (Q01959 whole entry): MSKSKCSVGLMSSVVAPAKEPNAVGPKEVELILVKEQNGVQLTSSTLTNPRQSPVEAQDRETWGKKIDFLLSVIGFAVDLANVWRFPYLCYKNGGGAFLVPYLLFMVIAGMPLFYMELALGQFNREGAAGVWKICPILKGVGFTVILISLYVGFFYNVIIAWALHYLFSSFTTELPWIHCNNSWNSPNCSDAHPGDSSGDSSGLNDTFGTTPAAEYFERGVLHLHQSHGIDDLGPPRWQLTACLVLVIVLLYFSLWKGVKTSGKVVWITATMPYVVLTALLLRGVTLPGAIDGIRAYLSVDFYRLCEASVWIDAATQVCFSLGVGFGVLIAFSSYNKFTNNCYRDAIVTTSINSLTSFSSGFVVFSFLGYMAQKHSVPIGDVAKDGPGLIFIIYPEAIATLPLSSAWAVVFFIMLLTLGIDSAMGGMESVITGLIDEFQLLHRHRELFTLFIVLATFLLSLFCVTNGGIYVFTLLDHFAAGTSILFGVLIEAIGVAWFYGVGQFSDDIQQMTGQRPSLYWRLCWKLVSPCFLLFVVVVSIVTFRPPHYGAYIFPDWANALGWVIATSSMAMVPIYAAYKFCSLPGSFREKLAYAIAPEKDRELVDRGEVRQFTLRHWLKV

For `CN(C)CCC(c1ccc2ccccc2c1)n1ncnn1` (stereo not drawn) [Example 6, Dimethyl-(3-naphthalen-2-yl-3-tetrazol-2-yl-propyl)-amine], the “Reduction % at 30ip” value in the assay on mice [1] is recorded as 87.7%. Further, the inhibition at 0.1 µM in assay [2] worked out at 30%; in assay [4], 41%; in assay [5] it was 20%. Further, the inhibition in vivo at 30 mg/kg with mice [3] came to 60.2%; with mice [6], 41.4%.
